In patent US20210009959A1, “METHODS FOR ENHANCING OSTEOGENIC DIFFERENTIATION USING VITAMIN D” (priority 2019, published 2021):

Experiments:
Format in all cases: cell-based
[1] = tested on: human adipose stem cells (hASCs); experiment: Metabolic activity / cell proliferation of hASCs in 3D PLGA/β-TCP scaffold, dynamic (perfusion bioreactor) and static (flask) culture
Method: In one embodiment, dynamic culture of pre-treated hASCs with calcitriol, using the modified perfusion bioreactor comprises the following steps. In one embodiment, the scaffolds are 3D PLGA/β-TCP. The modified perfusion bioreactor […] comprises five scaffolds, loaded with a total of 70 ml of culture medium as shown in FIG. 2. At another step, 30 ml of the culture medium is replaced twice a week for a total period of two weeks. At another step, the culture medium in the modified perfusion bioreactor 200 is distributed to the five scaffolds with the flow rate of about 5 ml/min using the peristaltic pump 202.
In one embodiment, the method of static culture of pre-treated hASCs is continued in a flask bioreactor with the same volume of culture medium utilized in the dynamic culture. Further, the methods of culturing the hASCs are divided into different groups. In one embodiment, the methods of culturing of hASCs are divided into four groups such as, static culture of non-treated hASCs, static culture of pre-treated hASCs with calcitriol, dynamic culture of non-treated hASCs and dynamic culture of pre-treated hASCs with calcitriol.
Referring to FIG. 9, the effects of dynamic pre-treated/non-treated hASCs versus static pre-treated/non-treated hASCs on metabolic activity or cell proliferation of hASCs is disclosed, where the pre-treated hASCs are seeded in 3D PLGA/β-TCP scaffold. In one embodiment, the hASCs are pre-treated with or without 10 nM calcitriol for 30 minutes and cultured in the modified perfusion bioreactor 200 (dynamic culture) and flask bioreactor (static culture). […] Also, the culturing groups are compared and there is no significant difference between the groups. However, the 14 days of dynamic culture of both non-treated hASCs and pre-treated hASCs increases cell proliferation by 1.1-fold relative to 7 days of culture.
In addition, alamarBlue assay, ALP assay, ALP staining, analysis of osteogenic and angiogenic gene expression and related protein content to evaluate the synergistic effects of flow-induced shear stress using a modified perfusion bioreactor and calcitriol pre-treatment are used for the examinations.

[2] = tested on: human adipose stem cells (hASCs); experiment: ALP activity of hASCs seeded in BCP scaffold
Method: In one embodiment, a method of static culture of hASCs by pre-treatment with vitamin D3 (calcitriol) and attachment of hASCs to the scaffold used in one-step surgical procedure comprises the following steps. At one step, isolating hASCs as explained in FIG. 1. In an embodiment, the hASCs from three donors at passage 3 are used for further processing. As an optional step, the obtained hASCs are either or not incubated for a period of about 30 mins with low concentrated calcitriol of about 10 nM at room temperature.
At next step, the calcitriol treated hASCs are washed twice with Phosphate Buffered Saline (PBS) to remove calcitriol. Further, the washed hASCs are centrifuged and resuspended in Dulbecco's Minimum Essential Medium (DMEM) without any supplements. At another step, the resuspended cells are seeded on the scaffold and allowed to attach to the scaffolds for a period of about 30 minutes. At next step, the scaffolds with attached cells are transferred to 12-well plates with Costar® Transwell® containers (Corning Life Sciences, Lowell, Mass., USA) containing expansion medium (DMEM) supplemented with 10% Fetal Clone I (FCI), antibiotics (1% penicillin/streptomycin/fungizone (PSF)), 50 μM ascorbic acid (Merck, Darmstadt, Germany), and 10 mM β-glycerol phosphate (Merck, Darmstadt, Germany) (PLGA/β-TCP). At next step, the hASCs seeded scaffolds are incubated at 5% CO2 in a humidified incubator at predefined temperature of about 37° C. for a period of about 3 weeks.
Referring to FIGS. 5A and 5B, the effects of calcitriol treatment on ALP activity of hASCs, where the calcitriol pre-treatment is conducted for a short period of 30 minutes and a long period of about 3 weeks. […] The ALP activity of continuous treated cells with calcitriol is increased by 2.6-fold relative to non-treated cells after 2 weeks of culture.

[3] = tested on: human adipose stem cells (hASCs); experiment: ALP staining using NBT/BCIP in hASCs; conditions: 30 min treatment; 2 and 3 weeks of culture; compared to continuous treatment
Description: Referring to FIG. 6, the effect of calcitriol treatment on ALP activity in hASCs by ALP staining using nitro blue tetrazolium chloride/5-bromo-4-chloro-3-indolyl phosphate (NBT/BCIP) is disclosed. […] The increase in ALP activity is confirmed by ALP staining after 14 days of culture. […] The cell distribution is confirmed by 4′,6-diamidino-2-phenylindole (DAPI) staining.

[4] = tested on: human adipose stem cells (hASCs); experiment: hASC proliferation (cell number) on BCP scaffold, static culture; conditions: vs non-treated controls
Method: In one embodiment, a method of static culture of hASCs by pre-treatment with vitamin D3 (calcitriol) and attachment of hASCs to the scaffold used in one-step surgical procedure comprises the following steps. At one step, isolating hASCs as explained in FIG. 1. In an embodiment, the hASCs from three donors at passage 3 are used for further processing. As an optional step, the obtained hASCs are either or not incubated for a period of about 30 mins with low concentrated calcitriol of about 10 nM at room temperature. At next step, the calcitriol treated hASCs are washed twice with Phosphate Buffered Saline (PBS) to remove calcitriol. Further, the washed hASCs are centrifuged and resuspended in Dulbecco's Minimum Essential Medium (DMEM) without any supplements. At another step, the resuspended cells are seeded on the scaffold and allowed to attach to the scaffolds for a period of about 30 minutes. At next step, the scaffolds with attached cells are transferred to 12-well plates with Costar® Transwell® containers (Corning Life Sciences, Lowell, Mass., USA) containing expansion medium (DMEM) supplemented with 10% Fetal Clone I (FCI), antibiotics (1% penicillin/streptomycin/fungizone (PSF)), 50 μM ascorbic acid (Merck, Darmstadt, Germany), and 10 mM β-glycerol phosphate (Merck, Darmstadt, Germany) (PLGA/β-TCP). At next step, the hASCs seeded scaffolds are incubated at 5% CO2 in a humidified incubator at predefined temperature of about 37° C. for a period of about 3 weeks. The effect of 30 minutes pre-treatment with calcitriol on hASC proliferation is exemplarily illustrated in FIG. 4C. […] The 30 minutes pre-treatment with calcitriol increases the cell number at day 14 by 3.5-fold, and at day 21 by 2.6-fold. The continuous treatment of hASCs with calcitriol for 3 weeks increases the cell number only at day 14 by 1.7-fold, but not at day 21 compared to non-treated controls as shown in FIG. 4C. The results of hASC proliferation are expressed as CFU (in %) versus time (in days) and represent means±standard errors of the means of the colon forming unit counts (n=3), where p<0.0001.

## C=C1/C(=C\C=C2/CCC[C@]3(C)[C@@H]([C@H](C)CCCC(C)(C)O)CC[C@@H]23)C[C@@H](O)C[C@@H]1O [calcitriol, 1,25-dihydroxyvitamin D3]
[1]; dynamic culture of pre-treated hASCs, 14 days relative to 7 days of culture
  cell proliferation, increase: 1.1 fold
[1]; dynamic culture of pre-treated hASCs, 14 days, relative to the first day
  cell proliferation, increase: 10.8 fold
[1]; dynamic culture of pre-treated hASCs, after 7 days, relative to the first day
  cell proliferation, increase: 9.9 fold
[1]; perfusion culture of pre-treated vs perfusion culture of non-treated hASCs, after 7 and 14 days
  cell proliferation: slightly decelerates
[1]; static culture of pre-treated hASCs (10 nM, 30 min), after 7 days, relative to the first day
  cell proliferation, increase: 10.6 fold
[1]; static culture of pre-treated hASCs, 14 days, relative to the first day
  cell proliferation, increase: 1.6 fold
[2]; 30 min pre-treatment, after 2 weeks of culture, vs non-treated cells
  ALP activity, increase: 18.5 fold
[2]; 30 min pre-treatment, after 3 weeks of culture
  ALP activity, increase: 2.4 fold
[2]; continuous treatment with 10 nM, after 2 weeks, vs non-treated cells
  ALP activity, increase: 2.6 fold
[2]; continuous treatment with 10 nM, at 3 weeks
  ALP activity, change: 0.4 fold
[3]
  ALP activity by ALP staining (NBT/BCIP): notably increases
[4]; 30 min pre-treatment, day 14
  cell number, increase: 3.5 fold
[4]; 30 min pre-treatment, day 21
  cell number, increase: 2.6 fold
[4]; continuous treatment for 3 weeks, day 14
  cell number, increase: 1.7 fold
[4]; continuous treatment for 3 weeks, day 21
  cell number, increase: not at day 21
